Experimental data reported in EP0751957B1, “PEPTIDE FRAGMENTS OF MICROBIAL STRESS PROTEINS AND PHARMACEUTICAL COMPOSITION MADE THEREOF FOR THE TREATMENT AND PREVENTION OF INFLAMMATORY DISEASES” (priority 1994, dated 2004).

Assays:
Assay type in all cases: cell-based, Lewis rats
[1] = system: primed lymph node cells (PLNC); test: T cell proliferation assay, PLNC from peptide-immunised rats; conditions: PLNC 10 days after immunisation with peptide 176-190 (100 µg/DDA); in vitro peptide 20 µg/ml
Procedure: Immunisations with synthetic peptides and primed lymph node populations: Rats were immunised with 50 µg of synthetic peptide in PBS/DDA in each hind footpad (i.e. 50 µg/footpad, 100 µg/rat). Ten days later, draining popliteal lymph nodes were removed, disaggregated, washed three times and used as a source of primed lymph node cells (PLNC). In some experiments, PLNC were derived as pooled inguinal and popliteal lymph nodes from AA rats 35-42 days post Mt immunisation.
(§1) T cell proliferation assays: PLNC were cultured in triplicate in 200 µl flat bottom microtitre wells (Costar) at 2 x 10^5 cells per well with or without antigen. In initial experiments PLNC were tested for responsiveness to individual peptides at concentrations of 5 and 20 µg/ml, and Mt, hsp65 and PPD over a range of concentrations. Concanavalin A (2 µg/ml) was used as a positive control for T cell proliferation. Cultures were incubated for 96 h at 37°C in a humidified atmosphere of 5% CO2. Cultures were pulsed for the final 16 h with [^3H] TdR (Amersham, U.K., 1 uCi/well) and TdR uptake measured using a liquid scintillation β counter. Assays using T cell lines were performed as above using 2 x 10^4 line cells per well with irradiated (30 Gy) syngeneic accessory cells (either 3 x 10^5 splenocytes/well or 10^6 thymocytes/well). Results are expressed as mean counts per minute (cpm) of triplicate cultures. In experiments where responses to Ag were low, responses were considered significant if the stimulation index (S.I. = […]) was greater than two and Student's t tests gave p < 0.01.
To determine whether immunisation of rats with synthetic peptides was effective at priming for T cell reactivity to hsp65 epitopes, in vitro proliferative responses following immunisation with 100 µg of peptide each containing individual T cell epitopes were examined. PLNC isolated ten days after immunisation were tested for response to the immunising peptide, overlapping peptides and to hsp65 (Table II). PLNC responses were observed after immunisation with seven of the nine peptides. Responses were not seen after immunisation with peptides 386-400 and 511-525.
T cell responses by immunisation with hsp65 peptides. Rats were immunised with synthetic peptides containing individual hsp65 epitopes (100 µg peptide/DDA per rat). Ten days later PLNC were isolated and tested for responses to overlapping peptides (20 µg/ml). Peptide-specific T cell lines were generated by bulk in vitro stimulation of PLNC with immunising peptide. Lines were tested for responses to overlapping peptides (10 µg/ml). […] Results are expressed as mean cpm of triplicate cultures. All SEM were less than 20%.

hsp65-PLNC = test: T cell proliferation assay, hsp65-PLNC; conditions: PLNC from hsp65-immunised rats; peptides 5 and 20 µg/ml
Procedure: (§2) Immunisations and primed lymph node populations: Rats were immunised with either Mt or hsp65. Mt was suspended at 5 mg/ml in IFA or DDA and 100 µl injected in each hind footpad (i.e. 500 µg/footpad, 1 mg/rat). Hsp65 (1 mg/ml in PBS) was mixed 1:1 with DDA and 100 µl injected (i.e. 50 µg/footpad, 100 µg/rat). Ten to 21 days later, draining popliteal lymph nodes were removed, disaggregated, washed three times and used as a source of primed lymph node cells (PLNC). In control experiments splenocytes and lymph nodes from unimmunised rats and PLNC from rats immunised with IFA or DDA/PBS alone were used.
as §1
Hsp65-PLNC were analysed for responsiveness to a panel of peptides covering the entire sequence of hsp65 (Fig. 3a). […] In terms of magnitude of response, three regions of the molecule (residues 176-190, 211-230 and 221-240) appeared to contain the "dominant" T cell epitopes, while regions 86-100. 251-270, 396-410 and 506-525 contained "subdominant" or minor epitopes.

Mt-PLNC = test: T cell proliferation assay, Mt-PLNC; conditions: PLNC from rats immunised with Mt mixed with DDA
Procedure: as §2
T cell proliferation assays: PLNC were cultured in triplicate in 200 µl flat bottom microtitre wells (Costar) at 2 x 10^5 cells per well with or without antigen. In initial experiments PLNC were tested for responsiveness to individual peptides at concentrations of 5 and 20 µg/ml, and Mt, hsp65 and PPD over a range of concentrations. Concanavalin A (2 µg/ml) was used as a positive control for T cell proliferation. Cultures were incubated for 96 h at 37°C in a humidified atmosphere of 5% CO2. Cultures were pulsed for the final 16 h with [^3H] TdR (Amersham, U.K., 1 uCi/well) and TdR uptake measured using a liquid scintillation β counter. […] Results are expressed as mean counts per minute (cpm) of triplicate cultures. […]

## peptide 176-190: synthetic 15mer of mycobacterial hsp65 containing the AA-associated epitope 180-188
[1]
  CPM PLNC: 57707 cpm
hsp65-PLNC
  hsp65-PLNC proliferative response to peptide: dominant
Mt-PLNC
  Mt/DDA-PLNC response to hsp65 peptide: dominant
